# Measurements from patent US8158670B2 (priority 1996, dated 2012).
# “Also recorded” adds a separate entry of the source.
# Legend:
# [1] = system: target (BO54 and M14) and non-target (HT29) cells; assay type: cell-based
# [2] = system: vascular smooth muscle cells; assay: In vitro DNA (3H-thymidine) and protein (3H-leucine) synthesis inhibition; assay type: cell-based; conditions: 24 hour assays, 5% FBS
# Experimental: The ability of various therapeutic agents to inhibit DNA synthesis and protein synthesis in vascular smooth muscle cells was tested. ^3H-leucine and ^3H-thymidine uptake and cytotoxicity assays were conducted in accordance with the following protocols.
# 5 minute exposure: ^3H-leucine uptake: Vascular smooth muscle cells at 40,000 cells/ml were seeded in sterile 24 well plates at 1 ml/well. The plates were incubated overnight at 37° C., 5% CO2, 95% air in a humidified atmosphere (saturation). Log dilutions of the therapeutic agent of interest were incubated with the vascular smooth muscle cells for 5 minutes or 24 hours. […] Vials were counted on a Beckman LS2800 liquid scintillation counter interfaced with Beckman “Data Capture” software for conversion to a Lotus 1-2-3® file and analysis using Lotus 1-2-3®.
# 5 minute exposure: ^3H-thymidine uptake: Vascular smooth muscle cells were incubated in complete medium with 5% FBS (Gibco) overnight at 37° C. in a humidified, 5% CO2 environment in sterile 24 well plates. […] The cells were visually scored for viability and cell number. […] Vials were counted on a Beckman LS2800 liquid scintillation counter interfaced with Beckman “Data Capture” software for conversion to a Lotus 1-2-3® file and analysis using Lotus 1-2-3®.
# [3] = system: vascular smooth muscle cells of balloon-traumatized arteries; assay type: in vivo, pig; conditions: pig, in vivo
# [4] = system: Vascular smooth muscle (BO54) cells; assay type: cell-based, baboon
compound,measurement,setting,value
Pseudomonas exotoxin [PE],metabolic activity measured in the MTT assay,[1],nonspecific cytotoxicity
CN[C@@H]1C[C@H]2O[C@@](C)([C@@H]1OC)n1c3ccccc3c3c4c(c5c6ccccc6n2c5c31)C(=O)NC4 [staurosporin],therapeutic range: 3H-leucine (protein synthesis) versus 3H-thymidine (DNA synthesis) inhibition,[2],exhibits a differential between ^3H-leucine and ^3H-thymidine uptake
same,BRDU uptake (cell proliferation),[3],"inhibits target cell proliferation; also recorded: inhibited BRDU uptake (i.e., cell proliferation) without killing the vascular smooth muscle cells"
CC(=O)O[C@@H]1/C=C\[C@@](C)(O)C(=O)[C@@H](C)C/C=C\[C@H]2[C@H](O)C(C)=C(C)[C@H]3C(Cc4ccccc4)NC(=O)[C@]132 (stereo partly shown) [cytochalasin C],minimum effective dose (MED),[4],0.01 µg/mL
